Results as given in patent publication US11970497B2, “Tricyclic AKR1C3 dependent KARS inhibitors” (Novartis AG, priority 2019, dated 2024).

Columns and labels:
Assay in all cases: Expanded lung cancer cell line proliferation assay
Type in all cases: cell-based
[1] = system: COLO-699; settings: COLO-699, 72 h, average of PrestoBlue and Cell Titer Glo; AKR1C3 expression: no data available; read-out: Absolute Qualified AC50
Source text: (§1) Cellular Proliferation Assay to Assess Compound Activity in an Expanded Panel of 57 NRF2 Pathway Mutant and Wild Type Lung Cancer Cell Lines.
(§2) Both the PrestoBlue Cell Viability Reagent and Cell Titer Glo were multiplexed together as the final assay readout. PrestoBlue is a cell permeable resazurin-based solution that utilizes the reducing power of living cells to quantitatively measure their proliferation. Cell Titer Glo measures the amount of ATP present, an indicator of metabolically active cells.
(§3) Expanded Lung Cancer Cell Line Proliferation Assay Outline, Analysis and Profiling Results
(§4) Cells were seeded into 384 well assay plates (Greiner Bio-One, Catalog #781080) using the Thermo Scientific Matrix WellMate microplate dispenser and Thermo Scientific Matrix WellMate small bore disposable tubing cartridges (Catalog #201-30002) in 30 μl of growth media (RPMI-1640 supplemented with 10% fetal bovine serum and 1% penicillin/streptomycin) per well (1000 to 2000 cells/well depending on doubling time). Following cell plating, assay plates were placed into tissue culture incubator at 37° C./5% CO2 overnight. The next day one assay plate for each cell line was used for a Day 0 Cell Titer Glo and PrestoBlue readout. 3 μl of PrestoBlue Cell Viability Reagent (Thermo Scientific, Catalog #A13262) was added to each well and then assay plates were incubated at 37° C./5% CO2 for 30 minutes prior to fluorescence readout on the EnVision 2105 multimode plate reader (Perkin Elmer). Following the PrestoBlue readout 18 μl of Cell Titer Glo (Promega, Catalog #G7572) was then added to each well, allowing plates to incubate at room temperature for 10 minutes prior to luminescence readout on the EnVision. Compound was then added to the remaining assay plates (each cell line run in triplicates) using the Labcyte Inc Echo 555 acoustic liquid handler. Compounds were arrayed into a Labcyte Inc Echo qualified 384 well LDV microplate (Cat #LP-0200-GNF10). Compounds were serially diluted 1:3.16 to generate an 8 point dose response for a final top concentration of 1 μM. DMSO (0.3%) was used as the neutral control (NC) and MG132 (30 μM) was used as the active control (AC). 90 nl of compounds were added to 30 μl of cells using the Labcyte Inc Echo 555 acoustic liquid handler for a final DMSO assay concentration of 0.3%. Following compound addition, assay plates were spun down in a tabletop centrifuge at 500 rpm for 1 minute and then placed into tissue culture incubator at 37° C./5% CO2 for 72 h. Following the 72 h incubation, all assay plates were readout using PrestoBlue and Cell Titer Glo using the same conditions previously described for the Day 0 readout. The Day 0 readout (untreated cells) was used to compare to the 72 h DMSO treated samples on each assay plate as a way of tracking each cell line's fold growth. NC1 control based normalization was used for data analysis in Helios, which incorporates the DMSO neutral control (NC) and MG132 active control (AC) for generating dose response curves that are then used to calculate the Absolute Qualified AC50 calls for each compound and cell line.
(§5) NC1 normalization calculation model: NC1: xn=±(x−NC)/(AC−NC)
(§6) +/− is set by the inhibition type parameter setting where NC and AC are averages (mean or median) over the corresponding NC and AC well values. The Qualified Absolute AC50 values for Compound 36 and Compound 40 are listed in the table below and are represented as the average activity in both the PrestoBlue and Cell Titer Glo assay readouts.
(§7) Absolute Qualified AC50 Values Listed Below are a Representation of Each Compounds' Average Activity in Both the PrestoBlue and Cell Titer Glo Assay Readouts.

[2] = system: Calu-6; settings: Homo sapiens; Calu-6, 72 h, average of PrestoBlue and Cell Titer Glo; AKR1C3 32.5 TPM; read-out: Absolute Qualified AC50
Source text: as §1, §2, §3, §4, §5, §6, §7

[3] = system: DV-90; settings: Homo sapiens; DV-90, 72 h, average of PrestoBlue and Cell Titer Glo; AKR1C3 48.9 TPM; read-out: Absolute Qualified AC50
Source text: as §1, §2, §3, §4, §5, §6, §7

[4] = system: HCC-44; settings: Homo sapiens, HCC44; HCC-44, 72 h, average of PrestoBlue and Cell Titer Glo; AKR1C3 134.3 TPM; read-out: Absolute Qualified AC50
Source text: as §1, §2, §3, §4, §5, §6, §7

[5] = system: HCC95; settings: Homo sapiens; HCC95, 72 h, average of PrestoBlue and Cell Titer Glo; AKR1C3 939.1 TPM; read-out: Absolute Qualified AC50
Source text: as §1, §2, §3, §4, §5, §6, §7

[6] = system: HLC-1; settings: HLC-1, 72 h, average of PrestoBlue and Cell Titer Glo; AKR1C3 expression: no data available; read-out: Absolute Qualified AC50
Source text: as §1, §2, §3, §4, §5, §6, §7

[7] = system: LXF-289; settings: Homo sapiens; LXF-289, 72 h, average of PrestoBlue and Cell Titer Glo; AKR1C3 358.4 TPM; read-out: Absolute Qualified AC50
Source text: as §1, §2, §3, §4, §5, §6, §7

[8] = system: NCI-H1299; settings: Homo sapiens; NCI-H1299, 72 h, average of PrestoBlue and Cell Titer Glo; AKR1C3 1.3 TPM; read-out: Absolute Qualified AC50
Source text: as §1, §2, §3, §4, §5, §6, §7

[9] = system: NCI-H1568; settings: NCI-H1568, 72 h, average of PrestoBlue and Cell Titer Glo; AKR1C3 2.8 TPM; read-out: Absolute Qualified AC50
Source text: as §1, §2, §3, §4, §5, §6, §7

[10] = system: NCI-H1792; settings: Homo sapiens; NCI-H1792, 72 h, average of PrestoBlue and Cell Titer Glo; AKR1C3 418.6 TPM; read-out: Absolute Qualified AC50
Source text: as §1, §2, §3, §4, §5, §6, §7

[11] = system: NCI-H2286; settings: Homo sapiens; NCI-H2286, 72 h, average of PrestoBlue and Cell Titer Glo; AKR1C3 0.9 TPM; read-out: Absolute Qualified AC50
Source text: as §1, §2, §3, §4, §5, §6, §7

[12] = system: NCI-H358; settings: Homo sapiens; NCI-H358, 72 h, average of PrestoBlue and Cell Titer Glo; AKR1C3 5.6 TPM; read-out: Absolute Qualified AC50
Source text: as §1, §2, §3, §4, §5, §6, §7

[13] = system: RERF-LC-MS; settings: 72 h, average of PrestoBlue and Cell Titer Glo, AKR1C3 221.6 TPM, read-out: Absolute Qualified AC50
Source text: as §1, §2, §3, §4, §5, §6, §7

[14] = system: SW1271; settings: SW1271, 72 h, average of PrestoBlue and Cell Titer Glo; AKR1C3 2.4 TPM; read-out: Absolute Qualified AC50
Source text: as §1, §2, §3, §4, §5, §6, §7

| SMILES | AC50 [1] [nM] | AC50 [2] [nM] | AC50 [3] [nM] | AC50 [4] [nM] | AC50 [5] [nM] | AC50 [6] [nM] | AC50 [7] [nM] | AC50 [8] [nM] | AC50 [9] [nM] | AC50 [10] [nM] | AC50 [11] [nM] | AC50 [12] [nM] | AC50 [13] [nM] | AC50 [14] [nM] |
| --- | --- | --- | --- | --- | --- | --- | --- | --- | --- | --- | --- | --- | --- | --- |
| CN1c2ccc(F)cc2C(=O)CC12CCN(C(=O)NCc1ccc(F)c(NCCO)c1)CC2 [Example 36, 6′-fluoro-N-(4-fluoro-3-((2-hydroxyethyl)amino)benzyl)-1′-methyl-4′-oxo-3′,4′-dihydro-1′H-spiro[piperidine-4,2′-quinoline]-1-carboxamide] | > 1000 | > 1000 | 347 | 705 | 287 | > 1000 | 781 | > 1000 | > 1000 | 553 | > 1000 | > 1000 | > 1000 | > 1000 |
| O=C1CC2(CCN(C(=O)NCc3ccc(F)cc3)CC2)Nc2ccc(F)cc21 [Example 40] | > 1000 | > 1000 | 159 | 440 | 69 | > 1000 | 835 | > 1000 | > 1000 | 196 | > 1000 | > 1000 | > 1000 | > 1000 |
